Data taken from publication PMC1847690 (PLoS Pathogens, 2007).

Assays:
[1] = molecular target: PknK kinase domain (PknK1–289) (Mycobacterium tuberculosis, UniProt P9WI65)
[2] = molecular target: PknB kinase domain (PknB1–308) (Mycobacterium tuberculosis, UniProt P9WI81)
UsfX (Rv3287c) = molecular target: T1, UsfX (Rv3287c) (Mycobacterium tuberculosis, UniProt P9WGX7)
T1 construct: gene rsbW

[3] = molecular target: PknA kinase domain (PknA1–337) (Mycobacterium tuberculosis, UniProt P9WI83)
[4] = molecular target: PknE kinase domain (PknE1–286) (Mycobacterium tuberculosis, UniProt P9WI77)
Sequence of PknE kinase domain (PknE1–286) (P9WI77 1-286): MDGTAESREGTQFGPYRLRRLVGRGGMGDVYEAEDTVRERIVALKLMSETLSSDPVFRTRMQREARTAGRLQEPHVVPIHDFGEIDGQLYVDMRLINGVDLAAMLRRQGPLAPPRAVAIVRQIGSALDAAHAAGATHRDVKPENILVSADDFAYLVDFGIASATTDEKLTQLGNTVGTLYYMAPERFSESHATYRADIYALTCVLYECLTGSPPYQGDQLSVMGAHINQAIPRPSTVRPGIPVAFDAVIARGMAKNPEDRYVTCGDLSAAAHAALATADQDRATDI

[5] = molecular target: PknD kinase domain (PknD1–378) (Mycobacterium tuberculosis, UniProt P9WI79)
Sequence of PknD kinase domain (PknD1–378) (P9WI79 1-378): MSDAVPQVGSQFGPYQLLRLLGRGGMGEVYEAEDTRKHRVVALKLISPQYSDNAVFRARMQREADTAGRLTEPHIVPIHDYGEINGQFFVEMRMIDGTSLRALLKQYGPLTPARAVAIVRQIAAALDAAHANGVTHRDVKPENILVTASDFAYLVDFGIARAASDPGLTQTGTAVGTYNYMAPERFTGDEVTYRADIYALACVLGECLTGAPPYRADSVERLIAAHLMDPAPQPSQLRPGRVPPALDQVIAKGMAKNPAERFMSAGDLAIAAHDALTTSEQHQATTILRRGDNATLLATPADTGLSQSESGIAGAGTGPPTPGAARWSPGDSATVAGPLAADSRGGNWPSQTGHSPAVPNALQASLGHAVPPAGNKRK

Sequence of PknA kinase domain (PknA1–337) (P9WI83 1-337): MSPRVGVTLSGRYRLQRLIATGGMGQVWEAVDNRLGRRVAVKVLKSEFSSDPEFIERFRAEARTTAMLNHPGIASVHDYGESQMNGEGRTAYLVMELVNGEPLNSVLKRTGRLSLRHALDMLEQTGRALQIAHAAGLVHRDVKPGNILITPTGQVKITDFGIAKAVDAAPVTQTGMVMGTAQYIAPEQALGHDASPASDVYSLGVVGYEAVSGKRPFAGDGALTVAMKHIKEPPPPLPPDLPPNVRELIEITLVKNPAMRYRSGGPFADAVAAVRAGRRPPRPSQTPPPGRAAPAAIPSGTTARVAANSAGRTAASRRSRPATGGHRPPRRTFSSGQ
Sequence of PknK kinase domain (PknK1–289) (P9WI65 1-289): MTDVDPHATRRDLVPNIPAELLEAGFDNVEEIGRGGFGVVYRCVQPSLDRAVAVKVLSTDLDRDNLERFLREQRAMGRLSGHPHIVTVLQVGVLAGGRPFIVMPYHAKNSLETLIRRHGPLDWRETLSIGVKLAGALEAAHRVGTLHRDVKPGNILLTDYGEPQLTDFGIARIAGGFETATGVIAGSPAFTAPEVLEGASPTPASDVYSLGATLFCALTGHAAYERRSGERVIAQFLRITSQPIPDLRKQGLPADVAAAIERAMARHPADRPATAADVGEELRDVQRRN
Sequence of PknB kinase domain (PknB1–308) (P9WI81 1-308): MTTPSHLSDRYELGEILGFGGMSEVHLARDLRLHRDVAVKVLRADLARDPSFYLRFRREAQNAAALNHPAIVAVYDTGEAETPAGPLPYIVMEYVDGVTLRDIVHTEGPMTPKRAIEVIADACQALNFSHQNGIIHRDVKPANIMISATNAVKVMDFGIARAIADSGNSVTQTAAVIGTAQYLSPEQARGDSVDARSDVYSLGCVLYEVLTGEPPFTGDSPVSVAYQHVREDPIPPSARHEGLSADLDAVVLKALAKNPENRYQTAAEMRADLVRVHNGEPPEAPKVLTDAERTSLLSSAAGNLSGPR
T1 sequence (P9WGX7 whole entry): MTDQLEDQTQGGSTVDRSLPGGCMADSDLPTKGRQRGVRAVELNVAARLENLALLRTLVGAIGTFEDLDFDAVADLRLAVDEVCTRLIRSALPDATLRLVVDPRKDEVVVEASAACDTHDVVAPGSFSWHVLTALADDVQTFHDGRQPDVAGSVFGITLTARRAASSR

Nc1ncnc2c1ncn2[C@@H]1O[C@H](COP(=O)(O)OP(=O)(O)OP(=O)(O)O)[C@@H](O)[C@H]1O [ATP]
[γ-32P]ATP transfer to MyBP, autoradiography [1]: At concentrations of each kinase domain equally active in phosphorylating the nonspecific substrate, MyBP
[γ-32P]ATP transfer to Rv0516c and RshA, autoradiography [2]: PknB and PknE also phosphorylated the anti–sigma factor RshA (Rv3221A)
phosphorylation of MyBP, autoradiography (UsfX (Rv3287c)): we incubated these proteins under conditions in which UsfX phosphorylated the model substrate
[γ-32P]ATP transfer to MyBP and the MBP tag, autoradiography [3]: The MBP tag was phosphorylated by the PknA, PknB, and PknE kinase domains
[γ-32P]ATP transfer to Rv0516c, RshA, Rv1904 and RsfA, autoradiography [4]: PknE weakly phosphorylated Rv1904 and RsfA (Rv1365c)

O=C1c2ccccc2-c2n[nH]c3cccc1c23 [SP600125]
dose-dependent inhibition [5]: The SP600125 inhibitor blocked this Rv0516c phosphorylation (Figure 3B) in a dose-dependent manner
